From article PMC6832141, “Synthesis and Cyclooxygenase Inhibition of Sulfonamide-Substituted (Dihydro)Pyrrolo[3,2,1-hi]indoles and Their Potential Prodrugs” (Molecules, 2019)

Key:
human COX-2 = target: T1, human COX-2 (Homo sapiens, UniProt P35354); assay: COX Fluorescent Inhibitor Screening Assay Kit (Cayman 700100), COX-2; assay type: biochemical; details: for SI (selectivity index): SI = IC50 (COX-1)/IC50 (COX-2); for IC50: human COX-2, values marked ** : compounds were screened at a concentration of 100 µM
T1 construct: purchased Cayman Chemical 700100
T1 sequence (P35354 18-604): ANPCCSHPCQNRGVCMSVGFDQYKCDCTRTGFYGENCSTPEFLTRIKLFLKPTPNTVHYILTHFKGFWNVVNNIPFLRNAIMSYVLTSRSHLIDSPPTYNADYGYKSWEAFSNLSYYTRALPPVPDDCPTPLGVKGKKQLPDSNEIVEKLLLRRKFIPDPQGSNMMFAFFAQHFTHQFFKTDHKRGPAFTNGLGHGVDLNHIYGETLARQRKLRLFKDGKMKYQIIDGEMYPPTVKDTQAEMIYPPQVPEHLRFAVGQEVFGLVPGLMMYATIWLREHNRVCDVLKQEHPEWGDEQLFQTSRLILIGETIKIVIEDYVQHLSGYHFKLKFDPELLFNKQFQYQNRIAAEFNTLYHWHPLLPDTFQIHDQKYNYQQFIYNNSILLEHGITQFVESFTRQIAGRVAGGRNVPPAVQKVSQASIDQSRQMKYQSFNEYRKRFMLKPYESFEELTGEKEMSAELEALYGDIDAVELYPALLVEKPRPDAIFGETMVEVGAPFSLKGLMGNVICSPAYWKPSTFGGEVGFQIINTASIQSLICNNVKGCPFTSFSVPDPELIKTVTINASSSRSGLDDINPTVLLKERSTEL

[1] = Lipophilicity, logD7.4 by HPLC method (Donovan and Pescatore); assay type: physicochemical; details: HPLC column ODP-50 4B (Shodex Asahipak 50 × 4.6 mm); pH 7.4, HPLC system 2, MeOH/PBS gradient
Procedure: The lipophilicity of all synthesized compounds was determined as logD7.4HPLC value (Table 1) using an HPLC method originally described by Donovan and Pescatore.
Column chromatography was performed using silica gel (mesh size 40–63 µm). Thin-layer chromatography (TLC) was performed on silica gel F-254 aluminum plates and visualized using UV (254 nm/366 nm). Analytical HPLC analysis was carried out with the following systems: (system 1) Agilent 1200 HPLC (Santa Clara, CA, USA; pump G1311A, autosampler G1329A, column oven G1316A, degasser G1322A, UV detector G1315D, γ detector Gabi Star (Raytest), Luna C18 column (Phenomenex, 250 × 4.6 mm), flow rate = 1 mL/min, isocratic eluent (MeCN/0.1% TFA in H2O 70/30 (v/v)); (system 2) Agilent 1100 HPLC (Santa Clara, CA, USA; binary pump G1312A, autosampler G1313A, column oven G1316A, degasser G1322A, UV detector G1314A, γ detector Gabi Star (Raytest, Straubenhardt, Germany); column ODP-50 4B (Shodex Asahipak 50 × 4.6 mm); eluent: MeOH/PBS (10 mM, pH 7.4) gradient t0 min 30/70 - t25 min 95/5 - t27 min 95/5 - t28 min 30/70 - t40 min 30/70, flow rate = 0.6 mL/min; (system 3) waters UPLC I-Class (Milford, MA, USA; binary gradient pump BSM, autosampler FTN, column manager CM, and diode array detector PDAeλ coupled to Waters Xevo TQ-S), column Aquity UPLC® BEH C18 column (waters, 100 × 2.1 mm, 1.7 µm, 130 Å), eluent: (A): 0.1% acetic acid in MeCN/MeOH 1/1/(B): 0.1% acetic acid in H2O; flow rate 0.4 mL/min), gradient: t0 min 45/55 - t0.5 min 45/55 - t5.5 min 95/5 - t7.0 min 95/5 - t8.0 min 45/55 – t8.5 min 45/55; (system 4) column (Kinetex C-18 (Phenomenex 50 × 2.1 mm, 1.7 µm, 100 Å), Shimadzu Nexera X2 UHPLC system (Kyoto, Japan; degasser DGU-20A3R and DGU-20A5R, pump LC-30AD, autosampler SIL-30AC, column oven CTO-20AC with two column switching valves FCV-14AH, diode array detector SPD-M30A, γ detector Gabi Star (Raytest, Straubenhardt, Germany), communication bus module CBM-20A), eluent: (A): MeCN, (B): 0.1% trifluoroacetic acid in H2O; flow rate 0.5 mL/min), gradient: t0 min 25/75 - t0.3 min 25/75 - t4.0 min 75/25 - t4.5 min 95/5 - t5.5 min 95/5 - t6.0 min 25/75 – t7.5 min 25/75. The products were monitored by an UV detector at 254 nm and purity of all compounds exceeded 95% as determined by analytical HPLC analysis (system 1 or system 3), unless otherwise stated. Semi-preparative HPLC was performed using the following system: column (C-18 Jupiter Proteo (Phenomenex 250 × 21.1 mm, 4 µm, 90 Å), Shimadzu prominence modular HPLC system (Kyoto, Japan; degasser DGU-20A5R, 2× pump LC-20AR, autosampler SIL-20AC HT, column oven CTO-20AC with column switching valve, diode array detector SPD-M20A, fluorescence detector RF-20A, and fraction collector FRC-10A, communication bus module CBM-20A), isocratic eluent 0.1% TFA in MeCN/0.1% TFA in H2O 70/30, flow rate = 10 mL/min.
The logD7.4HPLC value was determined as previously reported by us utilizing an HPLC method originally described by Donovan and Pescatore[18]. […]

ovine COX-1 = target: T2, ovine COX-1 (Ovis aries, UniProt P05979); assay: COX Fluorescent Inhibitor Screening Assay Kit (Cayman 700100), COX-1; assay type: biochemical; details: values marked ** : compounds were screened at a concentration of 100 µM
T2 construct: purchased Cayman Chemical 700100
T2 sequence (P05979 25-600): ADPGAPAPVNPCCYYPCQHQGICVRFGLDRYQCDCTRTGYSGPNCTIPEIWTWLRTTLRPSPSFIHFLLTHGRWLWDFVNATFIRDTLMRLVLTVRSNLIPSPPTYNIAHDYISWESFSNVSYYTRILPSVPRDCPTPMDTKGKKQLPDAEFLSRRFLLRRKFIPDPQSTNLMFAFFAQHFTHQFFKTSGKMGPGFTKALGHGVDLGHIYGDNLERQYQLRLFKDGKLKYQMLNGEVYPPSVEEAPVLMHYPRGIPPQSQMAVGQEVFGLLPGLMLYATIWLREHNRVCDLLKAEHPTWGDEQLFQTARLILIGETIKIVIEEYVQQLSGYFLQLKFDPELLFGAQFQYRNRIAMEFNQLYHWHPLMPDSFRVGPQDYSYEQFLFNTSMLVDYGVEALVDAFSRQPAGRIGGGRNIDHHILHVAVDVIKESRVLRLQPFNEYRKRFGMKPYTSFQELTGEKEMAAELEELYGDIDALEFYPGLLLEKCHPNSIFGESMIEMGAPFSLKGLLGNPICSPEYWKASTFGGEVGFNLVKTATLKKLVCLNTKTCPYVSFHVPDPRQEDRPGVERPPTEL

[2] = cited from earlier work

| Compound | SI (selectivity index) (human COX-2) | IC50 (human COX-2) [µM] | chromatographic logD [1] | IC50 (ovine COX-1) [µM] | melting point [°C] | water solubility [2] [mg/mL] |
| --- | --- | --- | --- | --- | --- | --- |
| NS(=O)(=O)c1ccc(-c2c(-c3ccccc3)c3cccc4c3n2CC4)cc1 [1a, 5-Phenyl-4-[4-(sulfamoyl)phenyl]-1,2-dihydropyrrolo[3,2,1-hi]indole] | 355 | 0.107 | 4.44 | 38 | – | – |
| Cc1ccc(-c2c(-c3ccc(S(N)(=O)=O)cc3)n3c4c(cccc24)CC3)cc1 [1b, 4-[4-(Sulfamoyl)phenyl]-5-(p-tolyl)-1,2-dihydropyrrolo[3,2,1-hi]indole] | 237 | 0.253 | 4.56 | 59.9 | – | – |
| NS(=O)(=O)c1ccc(-c2c(-c3ccc(Cl)cc3)c3cccc4c3n2CC4)cc1 [1c, 5-(4-Chlorophenyl)-4-[4-(sulfamoyl)phenyl]-1,2-dihydropyrrolo[3,2,1-hi]indole] | 144 | 0.106 | 4.9 | 15.3 | – | – |
| NS(=O)(=O)c1ccc(-c2c(-c3ccc(F)cc3)c3cccc4c3n2CC4)cc1 [1d, 5-(4-Fluorophenyl)-4-[4-(sulfamoyl)phenyl]-1,2-dihydropyrrolo[3,2,1-hi]indole] | 85 | 0.092 | 4.53 | 7.8 | – | – |
| NS(=O)(=O)c1ccc(-c2c(-c3ccccc3)c3cccc4ccn2c43)cc1 [2a, 1-Phenyl-2-[4-(sulfamoyl)phenyl]pyrrolo[3,2,1-hi]indole] | >1887 | 0.053 | 4.59 | > 100 | 218 to 220 | – |
| Cc1ccc(-c2c(-c3ccc(S(N)(=O)=O)cc3)n3ccc4cccc2c43)cc1 [2b, 2-[4-(Sulfamoyl)phenyl]-1-(p-tolyl)pyrrolo[3,2,1-hi]indole] | >1087 | 0.092 | 4.73 | > 100 | 233 to 235 | – |
| NS(=O)(=O)c1ccc(-c2c(-c3ccc(Cl)cc3)c3cccc4ccn2c43)cc1 [2c, 1-(4-Chlorophenyl)-2-[4-(sulfamoyl)phenyl]pyrrolo[3,2,1-hi]indole] | >1136 | 0.088 | 4.89 | > 100 | 270 to 273 | – |
| NS(=O)(=O)c1ccc(-c2c(-c3ccc(F)cc3)c3cccc4ccn2c43)cc1 [2d, 1-(4-Fluorophenyl)-2-[4-(sulfamoyl)phenyl]pyrrolo[3,2,1-hi]indole] | >1124 | 0.089 | 4.64 | > 100 | 258 to 259 | – |
| CCC(=O)NS(=O)(=O)c1ccc(-c2c(-c3ccccc3)c3cccc4c3n2CC4)cc1 [3a, N-{[4-(5-phenyl-1,2-dihydropyrrolo[3,2,1-hi]indol-4-yl)phenyl]sulfonyl}propionamide] | – | > 100 | 2.05 | > 100 | – | – |
| CCC(=O)NS(=O)(=O)c1ccc(-c2c(-c3ccc(C)cc3)c3cccc4c3n2CC4)cc1 [3b, N-({4-[5-(p-tolyl)-1,2-dihydropyrrolo[3,2,1-hi]indol-4-yl]phenyl}sulfonyl)propionamide] | – | > 100 | 2.31 | > 100 | – | – |
| CCC(=O)NS(=O)(=O)c1ccc(-c2c(-c3ccc(Cl)cc3)c3cccc4c3n2CC4)cc1 [3c, N-({4-[5-(4-chlorophenyl)-1,2-dihydropyrrolo[3,2,1-hi]indol-4-yl]phenyl}sulfonyl)propionamide] | >3.8 | 26.4 | 2.49 | > 100 | – | – |
| CCC(=O)NS(=O)(=O)c1ccc(-c2c(-c3ccc(F)cc3)c3cccc4c3n2CC4)cc1 [3d, N-({4-[5-(4-fluorophenyl)-1,2-dihydropyrrolo[3,2,1-hi]indol-4-yl]phenyl}sulfonyl)propionamide] | – | > 100 | 2.2 | > 100 | – | – |
| CCC(=O)NS(=O)(=O)c1ccc(-c2c(-c3ccccc3)c3cccc4ccn2c43)cc1 [4a, N-{[4-(1-phenylpyrrolo[3,2,1-hi]indol-2-yl)phenyl]sulfonyl}propionamide] | – | – | 2.24 | – | – | – |
| CCC(=O)NS(=O)(=O)c1ccc(-c2c(-c3ccc(C)cc3)c3cccc4ccn2c43)cc1 [4b, N-({4-[1-(p-tolyl)pyrrolo[3,2,1-hi]indol-2-yl]phenyl}sulfonyl)propionamide] | >2.9 | 33.9 | 2.48 | > 100 | – | – |
| CCC(=O)NS(=O)(=O)c1ccc(-c2c(-c3ccc(Cl)cc3)c3cccc4ccn2c43)cc1 [4c, N-({4-[1-(4-chlorophenyl)pyrrolo[3,2,1-hi]indol-2-yl]phenyl}sulfonyl)propionamide] | >9.1 | 11 | 2.6 | > 100 | – | – |
| CCC(=O)NS(=O)(=O)c1ccc(-c2c(-c3ccc(F)cc3)c3cccc4ccn2c43)cc1 [4d, N-({4-[1-(4-fluorophenyl)pyrrolo[3,2,1-hi]indol-2-yl]phenyl}sulfonyl)propionamide] | >3.8 | 26.5 | 2.3 | > 100 | – | – |
| CCC(=O)NS(=O)(=O)c1ccc(-c2c(-c3ccccc3)noc2C)cc1 [Parecoxib sodium] | – | – | – | – | – | > 50 |
